Measured values reported in US10264787B1, “Natural mosquito larvicide” (BIOVECBLOK, s.r.l., priority 2017, dated 2019).

System: Larvae and pupae of Anopheles gambiae, An. stephensi, Aedes albopictus and Ae. aegypti
Settings: after 24 hours post application; 0.03 g tyrosine in 200 ml breeding water; first to fourth-instar larvae
Protocol: The pre-adult developmental stages were grown under these conditions: 28° C., 80% relative humidity and a photoperiod of 12 h light followed by 12 h dark.
Mosquito larvicidal/pupicidal tests were carried out based on the WHO standardized procedures and guidelines for larvicidal assay.
For each mosquito species, 24 hours before the assay to reduce the larval stress, we prepared 6 trays [15 cm (width), 15 cm (length) and 6.5 cm (deep)] one for each tested products, containing 200 ml of breeding water which includes 40 mosquito larvae (first, second, third, fourth-instars) and 10 pupae. Each assay comprised of 3 replicates.
Mortality was recorded every 30 minutes from beginning for the pre-adult developmental stages (larvae and pupe). […] The dead larvae and pupae were recorded, and the average percentage mortality was calculated.

In the case of `N[C@@H](Cc1ccc(O)cc1)C(=O)O` [tyrosine], the larval mortality is reported as “about 60%”.
